Measurements published in patent US20240116985A1, “STAPLED PEPTIDES AND METHODS THEREOF” (priority 2020, published 2024).

Legend:
[1] = target: T1, full-length B-Catenin (Uniprot ID P35222) (Homo sapiens, UniProt P35222); assay: Alphascreen binding assay (beta-catenin / biotin-TCF4 10-53)
T1 construct: 65 nM full-length B-Catenin (Uniprot ID P35222)
T1 sequence (P35222 1-781): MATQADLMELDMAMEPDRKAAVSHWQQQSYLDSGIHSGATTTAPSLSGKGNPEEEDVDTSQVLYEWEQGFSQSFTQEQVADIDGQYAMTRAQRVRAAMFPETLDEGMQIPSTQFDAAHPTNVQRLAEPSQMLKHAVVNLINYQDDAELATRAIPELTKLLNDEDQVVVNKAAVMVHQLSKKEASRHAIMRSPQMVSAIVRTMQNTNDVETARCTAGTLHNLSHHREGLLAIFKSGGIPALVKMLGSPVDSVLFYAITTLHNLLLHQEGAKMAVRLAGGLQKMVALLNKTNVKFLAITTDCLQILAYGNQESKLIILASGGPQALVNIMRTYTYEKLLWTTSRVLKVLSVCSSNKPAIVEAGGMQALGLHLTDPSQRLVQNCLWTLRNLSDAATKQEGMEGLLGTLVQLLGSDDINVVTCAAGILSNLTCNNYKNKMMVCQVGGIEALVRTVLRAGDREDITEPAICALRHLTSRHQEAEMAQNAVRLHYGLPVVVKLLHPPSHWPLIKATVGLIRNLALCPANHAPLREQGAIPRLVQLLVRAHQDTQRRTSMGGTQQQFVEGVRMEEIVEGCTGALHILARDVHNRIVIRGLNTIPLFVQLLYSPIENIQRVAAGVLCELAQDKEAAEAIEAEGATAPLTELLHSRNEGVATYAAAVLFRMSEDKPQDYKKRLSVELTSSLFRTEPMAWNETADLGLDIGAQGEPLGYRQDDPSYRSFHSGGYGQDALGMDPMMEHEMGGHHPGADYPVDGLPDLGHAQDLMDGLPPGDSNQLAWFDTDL
Method in brief: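 Final concentrations: 65 nM full-length human β-catenin plus 10 nM biotin-TCF4(10-53) peptide, test peptide 3-fold from 10 uM to 5 nM, preincubated 15 min at 20 °C in Tris pH 8.0/250 mM NaCl buffer. Nickel-chelate AlphaScreen donor/acceptor beads then added for 60 min in the dark; duplicate reads fitted to 1:1 binding model with Hill slope.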

[2] = CHI Log D procedure; format: physicochemical; conditions: for CHI Log D: pH 7.4; for chromatographic logD: pH 7.4, CHI Log D

Compound	EC50 [1]	CHI Log D [2]	chromatographic logD [2]
CC[C@H](C)[C@H](NC(=O)[C@H](CC(=O)O)NC(=O)[C@H](C)NC(C)=O)C(=O)N[C@]1(C)CCN(C)C(=O)OCC=CCCCCC[C@@](C)(C(=O)N[C@@H](Cc2ccccc2)C(=O)N[C@@H](Cc2c[nH]c3ccccc23)C(=O)N[C@@H](C)C(N)=O)NC(=O)[C@H](C)NC(=O)[C@H](Cc2ccccc2)NC(=O)[C@H](C)NC(=O)[C@H](C)NC(=O)[C@H](CCC(=O)O)NC(=O)[C@H](CC(=O)O)NC1=O [I-155, Ac-Ala-Asp-Ile-RdN-Asp-Glu-Ala-Ala-Phe-Ala-S7-Phe-Trp-Ala-NH2]	0.734 µM	1.415	
CC(=O)N[C@@H](C)C(=O)N[C@@H](CC(=O)O)C(=O)N[C@@H](C)C(=O)N[C@]1(C)CCN(C)C(=O)OCC=CCCCCC[C@@](C)(C(=O)N[C@@H](Cc2ccccc2)C(=O)N[C@@H](Cc2c[nH]c3ccccc23)C(=O)N[C@@H](Cc2c[nH]cn2)C(N)=O)NC(=O)[C@H](CCC(N)=O)NC(=O)[C@H](Cc2ccccc2)NC(=O)[C@H](C)NC(=O)[C@H](C)NC(=O)[C@H](CCC(=O)O)NC(=O)[C@H](CC(=O)O)NC1=O [I-156, Ac-Ala-Asp-Ala-RdN-Asp-Glu-Ala-Ala-Phe-Gln-S7-Phe-Trp-His-NH2]	4.18 µM		1.07
CC[C@H](C)[C@H](NC(=O)[C@H](CC(=O)O)NC(C)=O)C(=O)N[C@]1(C)CCN(C)C(=O)OCC=CCCCCC[C@@](C)(C(=O)N[C@@H](Cc2ccccc2)C(=O)N[C@@H](Cc2c[nH]c3ccccc23)C(N)=O)NC(=O)[C@H](CCC(N)=O)NC(=O)[C@H](Cc2ccccc2)NC(=O)[C@H](C)NC(=O)[C@H](C)NC(=O)[C@H](CC(=O)O)NC(=O)[C@H](CC(=O)O)NC1=O [I-151, Ac-Asp-Ile-RdN-Asp-Asp-Ala-Ala-Phe-Gln-S7-Phe-Trp-NH2]	5.5 µM		1.35
CC(=O)N[C@@H](Cc1ccccc1)C(=O)N[C@@H](CC(=O)O)C(=O)N[C@@H](C)C(=O)N[C@]1(C)CCCC=CCOC(=O)N(C)CCC[C@@](C)(C(=O)N[C@@H](Cc2ccccc2)C(=O)N[C@@H](Cc2c[nH]c3ccccc23)C(=O)N[C@@H](CCC(N)=O)C(N)=O)NC(=O)[C@H](C(C)C)NC(=O)[C@H](Cc2ccccc2)NC(=O)[C@H](C)NC(=O)[C@H](C)NC(=O)[C@H](CC(=O)O)NC(=O)[C@H](CC(=O)O)NC1=O [I-25, Ac-Phe-Asp-Ala-R5-Asp-Asp-Ala-Ala-Phe-Val-SeN-Phe-Trp-Gln-NH2]	7.22 µM		1.17
CC(=O)N[C@@H](Cc1ccccc1)C(=O)N[C@@H](CC(=O)O)C(=O)N[C@@H](C)C(=O)N[C@]1(C)CCCCCCC=CCOC(=O)N2CC[C@@](C(=O)N[C@@H](Cc3ccc(C(=O)O)cc3)C(=O)N[C@@H](Cc3c[nH]c4ccccc34)C(=O)N[C@@H](CCC(N)=O)C(N)=O)(C2)NC(=O)[C@H](C(C)C)NC(=O)[C@H](Cc2ccccc2)NC(=O)[C@H](C)NC(=O)[C@H](C)NC(=O)[C@H](CC(=O)O)NC(=O)[C@H](CC(=O)O)NC1=O [I-110, Ac-Phe-Asp-Ala-R8-Asp-Asp-Ala-Ala-Phe-Val-PyrS-4COOHF-Trp-Gln-NH2]	8.5 µM	0.769	
CC(=O)NC(C)(C)C(=O)N[C@@H](CC(=O)O)C(=O)N[C@@H](C)C(=O)N[C@]1(C)CCCCCCC=CCOC(=O)N2CC[C@@](C(=O)N[C@@H](Cc3ccccc3)C(=O)N[C@@H](Cc3c[nH]c4ccccc34)C(=O)N[C@@H](CCC(N)=O)C(N)=O)(C2)NC(=O)[C@H](C(C)C)NC(=O)[C@H](Cc2ccccc2)NC(=O)[C@H](C)NC(=O)[C@H](C)NC(=O)[C@H](CCC(=O)O)NC(=O)[C@H](CC(=O)O)NC1=O [I-158, Ac-Aib-Asp-Ala-R8-Asp-Glu-Ala-Ala-Phe-Val-PyrS-Phe-Trp-Gln-NH2]	2.17 µM	1.23	
CC(=O)N1CCC[C@]12CC=CCCCC1(CCCC=CCCCCCC[C@@](C)(C(=O)N[C@@H](Cc3ccccc3)C(=O)N[C@@H](Cc3c[nH]c4ccccc34)C(=O)NC(C)(C)C(N)=O)NC(=O)[C@H](C(C)C)NC(=O)[C@H](Cc3ccccc3)NC(=O)[C@H](C)NC(=O)[C@H](C)NC(=O)[C@H](CCC(=O)O)NC(=O)[C@H](CC(=O)O)NC1=O)NC(=O)[C@H](C)NC(=O)[C@H](CC(=O)O)NC2=O (stereo partly drawn) [I-133, Ac-PL3-Asp-Ala-B5-Asp-Glu-Ala-Ala-Phe-Val-S8-Phe-Trp-Aib-NH2]	0.495 µM	2.383	

Continued, values first:

EC50 [1]	CHI Log D [2]	chromatographic logD [2]	Compound
6.58 µM	1.34		CC(=O)N[C@@H](Cc1ccccc1)C(=O)N[C@@H](CC(=O)O)C(=O)N[C@@H](C)C(=O)N[C@]1(C)CCCCCCC=CCOC(=O)N2CC[C@@](C(=O)N[C@@H](Cc3ccccc3)C(=O)N[C@@H](Cc3c[nH]c4ccccc34)C(=O)N[C@@H](CCC(N)=O)C(N)=O)(C2)NC(=O)[C@H]([C@@H](C)O)NC(=O)[C@H](Cc2ccccc2)NC(=O)[C@H](C)NC(=O)[C@H](C)NC(=O)[C@H](CC(=O)O)NC(=O)[C@H](CC(=O)O)NC1=O [I-222, Ac-Phe-Asp-Ala-R8-Asp-Asp-Ala-Ala-Phe-Thr-PyrS-Phe-Trp-Gln-NH2]
1.01 µM		2.46	CC(=O)N1CCC[C@]12CC=CCCCC1(CCCC=CCCCCCC[C@@](C)(C(=O)N[C@@H](Cc3ccccc3)C(=O)N[C@@H](Cc3c[nH]c4ccccc34)C(=O)N[C@@H](CCC(N)=O)C(N)=O)NC(=O)[C@H](C(C)C)NC(=O)[C@H](Cc3ccccc3)NC(=O)[C@H](C)NC(=O)[C@H](C)NC(=O)[C@H](Cc3ccncc3)NC(=O)[C@H](CC(=O)O)NC1=O)NC(=O)[C@H](C)NC(=O)[C@H](CC(=O)O)NC2=O (stereo partly drawn) [I-272, Ac-PL3-Asp-Ala-B5-Asp-4PyrA-Ala-Ala-Phe-Val-S8-Phe-Trp-Gln-NH2]
6.58 µM	1.34		CC(=O)N[C@@H](Cc1ccccc1)C(=O)N[C@@H](CC(=O)O)C(=O)N[C@@H](C)C(=O)N[C@]1(C)CCCCCCC=CCOC(=O)N2CC[C@@](C(=O)N[C@@H](Cc3ccccc3)C(=O)N[C@@H](Cc3c[nH]c4ccccc34)C(=O)N[C@@H](CCC(N)=O)C(N)=O)(C2)NC(=O)[C@H]([C@@H](C)O)NC(=O)[C@H](Cc2ccccc2)NC(=O)[C@H](C)NC(=O)[C@H](C)NC(=O)[C@H](CC(=O)O)NC(=O)[C@H](CC(=O)O)NC1=O [I-221, Ac-Phe-Asp-Ala-R8-Asp-Asp-Ala-Ala-Phe-Thr-PyrS-Phe-Trp-Gln-NH2]
3.97 µM	3.01		CC(=O)N1CCC[C@]12CC=CCCCC1(CCCC=CCCCCCC[C@@](C)(C(=O)N[C@@H](Cc3ccccc3)C(=O)N[C@@H](Cc3c[nH]c4ccccc34)C(=O)N[C@@H](CCC(N)=O)C(N)=O)NC(=O)[C@H](C(C)C)NC(=O)[C@H](Cc3ccccc3)NC(=O)[C@H](C)NC(=O)[C@H](C)NC(=O)[C@H](Cc3ccc(C(F)(F)F)cc3)NC(=O)[C@H](CC(=O)O)NC1=O)NC(=O)[C@H](C)NC(=O)[C@H](CC(=O)O)NC2=O (stereo partly drawn) [I-246, Ac-PL3-Asp-Ala-B5-Asp-4F3MeF-Ala-Ala-Phe-Val-S8-Phe-Trp-Gln-NH2]
0.367 µM	2.101		CC(=O)N1CCC[C@]12CC=CCCCC1(CCCC=CCCCCCC[C@@](C)(C(=O)N[C@@H](Cc3ccccc3)C(=O)N[C@@H](Cc3c[nH]c4ccccc34)C(=O)N[C@@H](CCC(N)=O)C(N)=O)NC(=O)[C@H](C(C)C)NC(=O)[C@H](Cc3cc(F)c(F)c(F)c3)NC(=O)[C@H](C)NC(=O)[C@H](C)NC(=O)[C@H](CCC(=O)O)NC(=O)[C@H](CC(=O)O)NC1=O)NC(=O)[C@H](C)NC(=O)[C@H](CC(=O)O)NC2=O (stereo partly drawn) [I-211, Ac-PL3-Asp-Ala-B5-Asp-Glu-Ala-Ala-345FF-Val-S8-Phe-Trp-Gln-NH2]
1.96 µM	2.232		CC(=O)N1CCC[C@]12CC=CCCCC1(CCCC=CCCCCCC[C@@](C)(C(=O)N[C@@H](Cc3ccc(C(F)(F)F)cc3)C(=O)N[C@@H](Cc3c[nH]c4ccccc34)C(=O)N[C@@H](CCC(N)=O)C(N)=O)NC(=O)[C@H](C(C)C)NC(=O)[C@H](Cc3ccccc3)NC(=O)[C@H](C)NC(=O)[C@H](C)NC(=O)[C@H](CC(=O)O)NC(=O)[C@H](CC(=O)O)NC1=O)NC(=O)[C@H](C)NC(=O)[C@H](CC(=O)O)NC2=O (stereo partly drawn) [I-255, Ac-PL3-Asp-Ala-B5-Asp-Asp-Ala-Ala-Phe-Val-S8-4F3MeF-Trp-Gln-NH2]
7.63 µM	1.497		CC(=O)N[C@@H](Cc1ccccc1)C(=O)N[C@@H](CC(=O)O)C(=O)N[C@@H](C)C(=O)N[C@]1(C)CCCCCCC=CCOC(=O)N2CC[C@@](C(=O)N[C@@H](Cc3c(F)c(F)c(F)c(F)c3F)C(=O)N[C@@H](Cc3c[nH]c4ccccc34)C(=O)N[C@@H](CCC(N)=O)C(N)=O)(C2)NC(=O)[C@H](C(C)C)NC(=O)[C@H](Cc2ccccc2)NC(=O)[C@H](C)NC(=O)[C@H](C)NC(=O)[C@H](CC(=O)O)NC(=O)[C@H](CC(=O)O)NC1=O [I-225, Ac-Phe-Asp-Ala-R8-Asp-Asp-Ala-Ala-Phe-Val-PyrS-Pff-Trp-Gln-NH2]
